This is an account of results in patent US20010039287A1, “AROMATIC SULFONE HYDROXAMIC ACID METALLOPROTEASE INHIBITOR” (priority 1997, published 2001).

Assay in all cases: biochemical
One assay addresses T1, recombinant human MMP-1 (Homo sapiens, UniProt P03956).
T1 construct: made in house; host or cells: transfected HT-1080 cells (provided by Dr. Harold Welgus, Washington University)
T1 sequence (P03956 100-469): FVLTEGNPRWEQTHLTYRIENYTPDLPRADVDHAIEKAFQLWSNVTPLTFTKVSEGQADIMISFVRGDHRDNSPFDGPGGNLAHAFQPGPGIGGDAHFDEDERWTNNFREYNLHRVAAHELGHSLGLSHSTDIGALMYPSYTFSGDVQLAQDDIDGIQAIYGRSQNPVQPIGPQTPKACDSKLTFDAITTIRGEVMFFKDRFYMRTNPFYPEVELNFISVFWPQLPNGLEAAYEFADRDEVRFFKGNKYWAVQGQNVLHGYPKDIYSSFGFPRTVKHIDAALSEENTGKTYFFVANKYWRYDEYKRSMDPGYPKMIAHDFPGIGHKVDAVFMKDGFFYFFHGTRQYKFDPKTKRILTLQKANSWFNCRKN
Conditions: Inhibition Table B; read-out: MMP-1 IC50.

A further assay addresses recombinant human MMP-13 (Homo sapiens, UniProt P45452). As to conditions: Inhibition Table B; read-out: MMP-13 IC50.
The target of a further assay is recombinant human MMP-9 (Homo sapiens, UniProt P14780). As to conditions: Inhibition Table B; read-out: MMP-9 IC50.
Chain of recombinant human MMP-9 (P14780 107-707 limits assumed): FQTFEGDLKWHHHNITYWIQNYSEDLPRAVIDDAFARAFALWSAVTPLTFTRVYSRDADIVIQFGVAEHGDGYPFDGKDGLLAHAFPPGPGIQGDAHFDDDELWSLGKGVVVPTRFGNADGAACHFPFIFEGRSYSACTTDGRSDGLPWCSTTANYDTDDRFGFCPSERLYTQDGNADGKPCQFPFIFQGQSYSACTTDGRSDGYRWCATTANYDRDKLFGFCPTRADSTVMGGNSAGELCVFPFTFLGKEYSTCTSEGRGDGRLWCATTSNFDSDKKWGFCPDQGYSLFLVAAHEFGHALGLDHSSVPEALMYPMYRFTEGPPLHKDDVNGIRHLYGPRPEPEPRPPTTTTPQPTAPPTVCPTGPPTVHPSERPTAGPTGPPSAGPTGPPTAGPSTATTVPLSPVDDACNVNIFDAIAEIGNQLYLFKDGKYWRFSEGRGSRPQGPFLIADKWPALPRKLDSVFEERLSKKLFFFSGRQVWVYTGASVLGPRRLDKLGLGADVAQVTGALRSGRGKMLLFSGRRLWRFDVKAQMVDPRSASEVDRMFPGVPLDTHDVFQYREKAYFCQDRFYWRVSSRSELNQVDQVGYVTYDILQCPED
A further assay deals with T2, recombinant human MMP-2 (Homo sapiens, UniProt P08253).
T2 sequence (P08253 110-660): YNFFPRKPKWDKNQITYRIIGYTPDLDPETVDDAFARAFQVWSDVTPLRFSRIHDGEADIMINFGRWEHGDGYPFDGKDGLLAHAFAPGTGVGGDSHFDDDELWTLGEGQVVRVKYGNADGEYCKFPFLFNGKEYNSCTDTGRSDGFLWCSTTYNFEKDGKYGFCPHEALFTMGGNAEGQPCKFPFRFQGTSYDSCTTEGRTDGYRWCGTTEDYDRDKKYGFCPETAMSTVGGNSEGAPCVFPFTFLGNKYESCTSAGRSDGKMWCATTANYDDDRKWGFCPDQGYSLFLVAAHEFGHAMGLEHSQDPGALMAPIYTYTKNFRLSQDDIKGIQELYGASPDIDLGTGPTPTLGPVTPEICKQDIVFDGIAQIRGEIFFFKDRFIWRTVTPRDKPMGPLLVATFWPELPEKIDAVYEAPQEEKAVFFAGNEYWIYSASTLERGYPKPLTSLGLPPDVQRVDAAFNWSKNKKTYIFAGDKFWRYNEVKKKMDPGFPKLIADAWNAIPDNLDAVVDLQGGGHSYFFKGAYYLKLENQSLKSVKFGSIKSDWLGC
As to conditions: Inhibition Table B; read-out: MMP-2 IC50.

Molecules are shown by their SMILES. Structures can show the parent of a compound that is named as a salt. Where only a bound is given, the exact number is not on record here.

With `C#CCN1CCC(C(=O)NO)(S(=O)(=O)c2ccc(Oc3ccc(OC)c(OC)c3)cc2)CC1` [Example 38, 4-[[4-(3,4-dimethoxyphenoxy)phenyl]sulfonyl]-N-hydroxy-1-(2-propynyl)-4-piperidinecarboxamide, Monohydrochloride], the IC50 on recombinant human MMP-1 was > 10000 nM; on recombinant human MMP-13 it was 22 nM; on recombinant human MMP-9 it was 135 nM; on recombinant human MMP-2 it was 20 nM.
On to `CS(=O)(=O)N1CCC(C(=O)NO)(S(=O)(=O)c2ccc(Oc3ccc4c(c3)OCO4)cc2)CC1` [Example 42, 4-[[4-(1,3-benzodioxol-5-yloxy)phenyl]sulfonyl]-N-hydroxy-1-(methylsulfonyl)-4-piperidinecarboxamide], for which the IC50 is 2200 nM at recombinant human MMP-1, 0.4 nM at recombinant human MMP-13, 1.3 nM on recombinant human MMP-9 and 0.2 nM at recombinant human MMP-2.
Turning to `O=C(NO)C1(S(=O)(=O)c2ccc(N3CCC(Oc4ccc5c(c4)OCO5)CC3)cc2)CCOCC1` [Example 63, 4-[[4-[4-(1,3-Benzodioxol-5-yloxy)-1-piperidinyl]phenyl]sulfonyl]-tetrahydro-N-hydroxy-2H-pyran-4-carboxamide, Monohydrochloride], the IC50 is > 10000 nM on recombinant human MMP-1, 1.5 nM on recombinant human MMP-13, 530 nM at recombinant human MMP-9 and 18.1 nM on recombinant human MMP-2.
Turning to `COc1ccc(Sc2ccc(S(=O)(=O)C3(C(=O)NO)CCOCC3)cc2)cc1` [Example 65, Tetrahydro-N-hydroxy-4-[[4-(4-methoxyphenylthio)phenyl]-sulfonyl]-2H-pyran-4-carboxamide], the IC50 at recombinant human MMP-1 worked out at 8000 nM; at recombinant human MMP-13, 0.7 nM; at recombinant human MMP-9, 4.4 nM; on recombinant human MMP-2, 0.6 nM.
Turning to `O=C(NO)C1(S(=O)(=O)c2ccc(NCc3ccccc3)cc2)CCOCC1` [Example 68, tetrahydro-N-hydroxy-4-[[4-[(4-phenylmethyl)amino]phenyl]-sulfonyl]-2H-pyran-4-carboxamide, Monohydrochloride], the IC50 at recombinant human MMP-1 is > 10000 nM; at recombinant human MMP-13 it was 6 nM; on recombinant human MMP-9, 130 nM; on recombinant human MMP-2 it was 5.3 nM.
Take `O=C(NO)C1(S(=O)(=O)c2ccc(Oc3cc(F)cc(F)c3)cc2)CCOCC1` [Example 70, 4-[[4-(3,5-difluorophenoxy)phenyl]sulfonyl]tetrahydro-N-hydroxy-2H-pyran-4-carboxamide]: the IC50 came to 1500 nM at recombinant human MMP-1, 0.8 nM at recombinant human MMP-13, 7.3 nM on recombinant human MMP-9 and 0.2 nM on recombinant human MMP-2.
For `Cc1ccc(Oc2ccc(S(=O)(=O)C3(C(=O)NO)CN(C)CN(C)C3)cc2)cc1C` [Example 78, 5-[4-(3,4-dimethylphenoxy)phenyl]sulfonyl-N^5-hydroxy-1,3-dimethylhexahydro-5-pyrimidinecarboxamide, Dihydrochloride] the same measures were > 10000 nM, 10 nM, 50 nM and 6 nM.
In the case of `Cc1cc(Oc2ccc(S(=O)(=O)C3(C(=O)NO)CCN(CC(=O)O)CC3)cc2)ccc1Cl` [Example 80, 4-[[4-(4-chloro-3-methylphenoxy)phenyl]sulfonyl]-4-(hydroxyamino)carbonyl]-1-piperidineacetic Acid, Monohydrochloride], the IC50 on recombinant human MMP-1 came to 3000 nM; at recombinant human MMP-13, 0.2 nM; on recombinant human MMP-9, 1.8 nM; at recombinant human MMP-2 it was 0.1 nM.
For the molecule `Cc1cc(Oc2ccc(S(=O)(=O)C3(C(=O)NO)CCNCC3)cc2)ccc1F` [Example 83, 4-[[4-(4-fluoro-3-methylphenoxy)phenyl]sulfonyl]-N-hydroxy-4-piperidine Carboxamide, Monohydrochloride], the IC50 at recombinant human MMP-1 turned out to be 8000 nM; at recombinant human MMP-13, 1.5 nM; at recombinant human MMP-9, 5 nM; at recombinant human MMP-2, 1.2 nM.
For the molecule `C#CCN1CCC(C(=O)NO)(S(=O)(=O)c2ccc(Oc3ccc(Cl)cc3)cc2)CC1` [Example 85, 4-[[4-(4-chlorophenoxy)-phenyl]sulfonyl]-N-hydroxy-1-(2-propynyl)-4-piperidinecarboxamide, Monohydrochloride], the IC50 at recombinant human MMP-1 is 500 nM; on recombinant human MMP-13 it was < 0.1 nM; on recombinant human MMP-9, 0.4 nM; at recombinant human MMP-2 it was < 0.1 nM.
Take `O=C(O)CN1CCC(C(=O)NO)(S(=O)(=O)c2ccc(Sc3ccccc3)cc2)CC1` [Example 87, 4-[(hydroxyamino)-carbonyl]-4-[[4-(phenylthio)phenyl]-sulfonyl]-1-piperidineacetic Acid, Monohydrochloride]: the half-inhibitory concentration (IC50) worked out at 7200 nM at recombinant human MMP-1, 0.35 nM at recombinant human MMP-13, 13.9 nM at recombinant human MMP-9 and 0.8 nM at recombinant human MMP-2.
Turning to `O=C(O)CN1CCC(C(=O)NO)(S(=O)(=O)c2ccc(Oc3ccc(Cl)cc3)cc2)CC1` [Example 88, 4-[[4-(4-chlorophenoxy)-phenyl]sulfonyl]-4-[(hydroxyamino)-carbonyl]-1-piperidineacetic Acid, Monohydrochloride], the IC50 amounted to 1100 nM at recombinant human MMP-1, 0.2 nM on recombinant human MMP-13, 0.5 nM on recombinant human MMP-9 and 0.2 nM at recombinant human MMP-2.
Take `O=C(NO)C1(S(=O)(=O)c2ccc(Oc3ccc(Cl)cc3)cc2)CCN(CCN2CCOCC2)CC1` [Example 89, 4-[[4-(4-chlorophenoxy)-phenyl]sulfonyl]-N-hydroxy-1-[2-(4-morpholinyl)ethyl]-4-piperidine-carboxamide, Dihydrochloride]: the IC50 on recombinant human MMP-1 amounted to 1200 nM; on recombinant human MMP-13, 0.25 nM; at recombinant human MMP-9 it was 0.4 nM; on recombinant human MMP-2 it was 0.15 nM.
The matching figures for `O=C(NO)C1(S(=O)(=O)c2ccc(-c3ccc(Cl)cc3)cc2)CCNCC1` [Example 91, 4-[(4′-chloro[1,1′-biphenyl]-4-yl)sulfonyl]-N-hydroxy-4-piperidinecarboxamide, Monohydrochloride]: 1800 nM, 2.1 nM, 40 nM and 1.5 nM.
As to `Cc1ccc(Oc2ccc(S(=O)(=O)C3(C(=O)NO)CCOCC3)cc2)cc1C` [Example 96, 4-[[4-(3,4-dimethyl-phenoxy)phenyl]ssulfonyl]tetrahydro-N-hydroxy-2H-pyran-4-carboxamide], the IC50 at recombinant human MMP-1 came to 5000 nM; at recombinant human MMP-13, 0.3 nM; on recombinant human MMP-9 it was 1.3 nM; on recombinant human MMP-2 it was 0.2 nM.
Take `O=C(O)CCc1ccc(Oc2ccc(S(=O)(=O)C3(C(=O)NO)CCOCC3)cc2)cc1` [Example 105, 4-[4-[[tetrahydro-4-[(hydroxyamino)carbonyl]-2H-pyran-4-yl]sulfonyl]phenoxy]benzenepropanoic Acid]: the IC50 on recombinant human MMP-1 was > 10000 nM; at recombinant human MMP-13, 0.85 nM; at recombinant human MMP-9, 114 nM; on recombinant human MMP-2, 3500 nM.
In the case of `O=C(NO)C1(S(=O)(=O)c2ccc(Oc3ccccc3)cc2)CCS(=O)(=O)CC1` [Example 110], the IC50 at recombinant human MMP-1 was determined as 2700 nM; on recombinant human MMP-13 it was 0.5 nM; on recombinant human MMP-9, 10 nM; at recombinant human MMP-2 it was 0.4 nM.
For `O=C(NO)C1(S(=O)(=O)c2ccc(Sc3ccc(O)cc3)cc2)CCSCC1` [Example 114] the same measures were 3000 nM, 0.4 nM, 31.6 nM and 0.65 nM.
For `NCCc1ccc(Oc2ccc(S(=O)(=O)C3(C(=O)NO)CCSCC3)cc2)cc1` [Example 116, tetrahydro-N-hydroxy-4-[[4-[4-tyramine)phenoxy]phenyl] Sulfonyl 2H-thiopyran-4-carboxamide] the same measures were 2350 nM, 5.5 nM, 15.3 nM and 2 nM.
For the molecule `O=C(NO)C1(S(=O)(=O)c2ccc(Sc3ccncc3)cc2)CCSCC1` [Example 119, tetrahydro-N-hydroxy-4-[[4-(4-pyridinylthio)-phenyl]sulfonyl]-2H-thiopyran-4-carboxamide, Monohydrochloride], the IC50 at recombinant human MMP-1 was > 10000 nM; on recombinant human MMP-13 it was 1.7 nM; at recombinant human MMP-9, 30 nM; at recombinant human MMP-2 it was 1.5 nM.
Consider `CC(=O)N1CCN(c2ccc(Oc3ccc(S(=O)(=O)C4(C(=O)NO)CCOCC4)cc3)cc2)CC1` [Example 123, 4-[[4-[4-(4-acetyl-1-piperazinyl)phenoxy]phenyl]sulfonyl]-tetrahydro-N-hydroxy-2H-pyran-4-carboxamide, Trifluoroacetic Acid Salt], for which the half-maximal inhibitory concentration (IC50) at recombinant human MMP-1 was 3600 nM; on recombinant human MMP-13 it was 1.8 nM; on recombinant human MMP-9 it was 27.8 nM; at recombinant human MMP-2, 1.8 nM.
